Consider one molecule from patent US20230263825A1, “ANTI-CANCER ACTIVITY OF PERBORATE SALTS” (priority 2020, published 2023).

Molecules are shown by their SMILES.

Holding throughout (type): cell-based
The test system of experiment [1] is DMS114 cells (small cell lung cancer cells). In words: Flow cytometry (Annexin V / PI) cell death pathways. The settings on record: 15 μg/mL, 3 days. As to the method: (§1) Cell death pathways were analysed using the Annexin V method, performed by flow cytometry. In this method, Annexin V dye is used to detect cells entering the apoptosis death pathway (Sigma-Aldrich Cat No: 11858777001), while PI (Propidium Iodide) dye is used to detect cells entering the necrosis death pathway (Sigma-Aldrich Cat No: 11858777001).
(§2) Cells were grown in complete RPMI media (completed with 10% Fetal Bovine Serum and 1% penicillin streptomycin amphotericin) in a humidified CO2 incubator (80% humidity, 5% CO2 and 37° C.). At 70-80% confluency, cells were harvested using Trypsin/EDTA solution. After 3 days of sodium perborate tetrahydrate treatment (15 μg/mL), the cells were harvested and divided into 4 equal tubes. […] Only PI dye was placed in the second tube and necrotic cells were detected. Annexin V dye was placed in the third tube and apoptotic cells were detected. In the fourth tube, two dyes were put together. […] On the other hand, over 90% of MRC5 cells were alive in the control as well as following treatment with sodium perborate tetrahydrate, with only a small percentage (<5%) of treated cells in necrosis.
(In general: A flow cytometer gives signals particle by particle.)

Experiment [2] concerns MRC5 cells (healthy lung cells). Described as above. The settings on record: 15 μg/mL, 3 days. As to the method:
as §1, §2

The test system of experiment [3] is PSN-1 (a pancreatic adenocarcinoma cell line). In words: MTS cytotoxicity assay, single agents and combinations. The settings on record: PSN-1, alone. As to the method: An MTS reduction (MTS (3-(4,5-dimethylthiazol-2-yl)-5-(3-carboxymethoxyphenyl)-2-(4-sulfophenyl)-2H-tetrazolium) assay) was conducted to analyze the cytotoxic effect of sodium perborate tetrahydrate on lung, chordoma and pancreatic cells and normal cells. In this method, cell viability is determined via the activity of mitochondrial dehydrogenase enzyme, which reduces the tetrazolium dye MTS to its […] formazan (absorbance maximum of 490 nm in PBS).
Cells were counted and seeded in 96-well culture dishes. […] The positive control comprised 20% Dimethyl Sulfoxide and the negative control comprised complete growth media. Seeding densities were as follows: DMS114: 20.000 cells/well; MRC5: 5.000 cells/well; CH22: 2.000 cells/well; JHC7, UM-Chor1, MUG-Chor1, UCH1 and NPH: 5.000 cells/well; PSN1: 10.000 cells/well; BxPC3 and ASPC: 7.500 cells/well. The effect of sodium perborate tetrahydrate on cell viability was measured as follows. The cell culture medium was discarded and 100 μl of MTS solution (10% glucose solution and 1% MTS-PMS solution in PBS) was added into each well. After 1 hour incubation in a humidified incubator, an absorbance reading was taken to determine mitochondrial dehydrogenase activity and cell survival was calculated relative to the negative control.
(In general: Tetrazolium assays rely on reduction of a dye to a coloured formazan, in cell work by metabolically active cells.)

On to `O.O.O.O.[Na+].[O-]B1OO1` [sodium perborate tetrahydrate], for which, in experiment [1], the cells alive result is listed as “less than 5%”, the “cells in early apoptosis” value is reported as roughly 80% and the “cells in late apoptosis” value is given as roughly 10%. Moreover, in experiment [2], the “damage to healthy cells (MRC5) relative to cancer cells (DMS114), times less” value is “approximately 5 times”. Moreover, in experiment [2] (MRC5), the cells alive entry was “over 90%” and the “treated cells in necrosis” value is on record as “less than 5%”. In addition, the EC50 concentration in experiment [3] was determined as 7.5 µg/mL.
